Measurements published in ChEMBL document CHEMBL4613233, “Discovery of 2-((4-resorcinolyl)-5-aryl-1,2,3-triazol-1-yl)acetates as potent Hsp90 inhibitors with selectivity over TRAP1” (Bioorg Med Chem Lett, 2020).

Columns and labels:
[1] = target: Heat shock protein HSP 90-alpha (Homo sapiens, UniProt P07900)
Description: Inhibition of recombinant HSP90alpha (unknown origin) incubated for 24 hrs in presence of 1-FITC3 probe by fluorescence polarization assay

Endoplasmin = Endoplasmin (Homo sapiens, UniProt P14625); assay: Inhibition of GRP94 (unknown origin)
[2] = target: T1, Heat shock protein 75 kDa, mitochondrial (Homo sapiens, UniProt Q12931); assay: Inhibition of TRAP1 (unknown origin)
T1 sequence (Q12931 whole entry): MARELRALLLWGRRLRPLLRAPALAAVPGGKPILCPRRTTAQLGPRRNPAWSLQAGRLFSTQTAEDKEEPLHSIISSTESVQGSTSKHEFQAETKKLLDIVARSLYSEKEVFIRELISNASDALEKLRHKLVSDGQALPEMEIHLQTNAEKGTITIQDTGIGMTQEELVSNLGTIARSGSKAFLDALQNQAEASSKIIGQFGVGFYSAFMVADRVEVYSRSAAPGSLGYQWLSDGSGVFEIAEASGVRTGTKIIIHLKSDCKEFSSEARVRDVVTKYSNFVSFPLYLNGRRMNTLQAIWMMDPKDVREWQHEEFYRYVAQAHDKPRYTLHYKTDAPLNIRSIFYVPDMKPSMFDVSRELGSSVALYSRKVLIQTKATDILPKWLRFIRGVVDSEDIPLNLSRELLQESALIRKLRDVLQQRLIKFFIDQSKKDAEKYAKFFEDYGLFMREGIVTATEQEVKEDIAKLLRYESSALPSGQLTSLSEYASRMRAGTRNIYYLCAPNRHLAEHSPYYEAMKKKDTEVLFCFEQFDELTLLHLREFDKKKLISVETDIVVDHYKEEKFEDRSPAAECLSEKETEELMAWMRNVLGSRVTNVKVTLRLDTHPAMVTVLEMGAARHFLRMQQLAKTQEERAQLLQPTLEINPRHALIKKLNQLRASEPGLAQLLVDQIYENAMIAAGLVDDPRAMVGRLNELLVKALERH

HeLa = assay: Antiproliferative activity against human HeLa cells by MTT assay; format: functional, cell-based
PC-3 = assay: Antiproliferative activity against human PC3 cells by MTT assay; format: functional, cell-based

Sequence of Endoplasmin (P14625 whole entry): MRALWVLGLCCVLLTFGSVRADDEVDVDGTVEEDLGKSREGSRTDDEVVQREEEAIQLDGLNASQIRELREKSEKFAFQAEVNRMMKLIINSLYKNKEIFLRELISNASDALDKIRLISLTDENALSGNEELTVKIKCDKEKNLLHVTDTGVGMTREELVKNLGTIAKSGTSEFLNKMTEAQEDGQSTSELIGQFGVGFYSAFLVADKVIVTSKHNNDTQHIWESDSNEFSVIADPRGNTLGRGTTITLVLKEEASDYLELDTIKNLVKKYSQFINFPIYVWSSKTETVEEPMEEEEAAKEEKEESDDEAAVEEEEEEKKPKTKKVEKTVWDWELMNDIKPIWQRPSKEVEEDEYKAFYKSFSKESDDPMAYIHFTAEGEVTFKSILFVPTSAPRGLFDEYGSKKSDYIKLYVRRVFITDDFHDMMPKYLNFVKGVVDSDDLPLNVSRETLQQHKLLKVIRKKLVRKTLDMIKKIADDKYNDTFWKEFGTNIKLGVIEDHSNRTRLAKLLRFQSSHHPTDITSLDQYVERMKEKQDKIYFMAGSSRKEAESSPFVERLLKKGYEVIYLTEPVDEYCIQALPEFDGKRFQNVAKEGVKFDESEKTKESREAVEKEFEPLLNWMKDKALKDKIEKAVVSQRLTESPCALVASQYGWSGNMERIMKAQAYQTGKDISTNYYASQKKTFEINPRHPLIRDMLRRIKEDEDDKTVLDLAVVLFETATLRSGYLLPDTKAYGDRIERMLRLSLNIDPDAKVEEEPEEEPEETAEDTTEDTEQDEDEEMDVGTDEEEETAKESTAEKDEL

Row | SMILES | IC50 [1] | IC50 (Endoplasmin) | IC50 [2] | IC50 (HeLa) | IC50 (PC-3)
1 | CC(C)c1cc(-c2nn[nH]c2-c2ccc(S(C)(=O)=O)cc2)c(O)cc1O | 166 nM |  |  |  | 
2 | CC(C)c1cc(-c2nn[nH]c2-c2ccc3c(c2)OCCO3)c(O)cc1O | 169 nM |  |  |  | 
3 | CC(C)c1cc(-c2nnn(CC(N)=O)c2-c2ccc(S(C)(=O)=O)cc2)c(O)cc1O | 136 nM |  |  |  | 
4 | CC(C)c1cc(-c2nnn(CC(=O)O)c2-c2ccc(S(C)(=O)=O)cc2)c(O)cc1O | 187 nM |  |  |  | 
5 | CCOC(=O)Cn1nnc(-c2cc(C(C)C)c(O)cc2O)c1-c1cccc(S(C)(=O)=O)c1 | 53.1 nM | 96.2 nM | 35.1 µM |  | 
6 | COC(=O)Cn1nnc(-c2cc(C(C)C)c(O)cc2O)c1-c1ccc2c(c1)OCCO2 | 47.8 nM | 78 nM | 11.9 µM | 500 nM | 234 nM
7 | CCOC(=O)Cn1nnc(-c2cc(CC)c(O)cc2O)c1-c1ccc(CN2CCOCC2)cc1 | 178 nM |  |  |  | 
8 | CCc1cc(-c2nnn(CC(=O)OC)c2-c2ccc3c(c2)OCCO3)c(O)cc1O | 173 nM |  |  |  | 
9 | COC(=O)Cn1nnc(-c2cc(C(C)C)c(O)cc2O)c1-c1ccc(CN2CCOCC2)cc1 | 91 nM | 197 nM | 24.5 µM |  | 
10 | COC(=O)Cn1nnc(-c2cc(C(C)C)c(O)cc2O)c1-c1cccc(NS(C)(=O)=O)c1 | 78.3 nM | 190 nM | 24.5 µM |  | 
11 | CCc1cc(-c2nnn(CC(=O)OC)c2-c2cccc(NS(C)(=O)=O)c2)c(O)cc1O | 184 nM |  |  |  | 
12 | COC(=O)Cn1nnc(-c2cc(C(C)C)c(O)cc2O)c1-c1ccc(S(C)(=O)=O)cc1 | 43.3 nM | 89 nM | 16 µM | > 2000 nM | 460 nM
13 | CCc1cc(-c2nnn(CC(=O)OC)c2-c2cccc(S(C)(=O)=O)c2)c(O)cc1O | 154 nM |  |  |  | 
14 | CCOC(=O)Cn1nnc(-c2cc(C(C)C)c(O)cc2O)c1-c1ccc2c(c1)OCCO2 | 60.9 nM | 192 nM | 25.4 µM |  | 
15 | CC(C)c1cc(-c2nnn(Cc3ccccc3)c2-c2ccc(S(C)(=O)=O)cc2)c(O)cc1O | 45.7 nM | 78 nM | 8.48 µM | 206 nM | 286 nM
16 | CC(C)c1cc(-c2nnn(CC(=O)O)c2-c2cccc(S(C)(=O)=O)c2)c(O)cc1O | 173 nM |  |  |  | 

Row | SMILES | IC50 [1] | IC50 (Endoplasmin) | IC50 [2] | IC50 (HeLa) | IC50 (PC-3)
17 | CC(C)c1cc(-c2nnn(CC(N)=O)c2-c2ccc3c(c2)OCCO3)c(O)cc1O | 134 nM |  |  |  | 
18 | CC(C)c1cc(-c2nnn(CC(=O)O)c2-c2cccc(NS(C)(=O)=O)c2)c(O)cc1O | 767 nM |  |  |  | 
19 | CCc1cc(-c2nnn(CC(N)=O)c2-c2ccc(S(C)(=O)=O)cc2)c(O)cc1O | 470 nM |  |  |  | 
20 | CC(C)c1cc(-c2nn[nH]c2-c2ccccc2)c(O)cc1O | 296 nM |  |  |  | 
21 | COC(=O)Cn1nnc(-c2cc(C(C)C)c(O)cc2O)c1-c1ccc(O)c(O)c1 | 153 nM |  |  |  | 
22 | CCOC(=O)Cn1nnc(-c2cc(CC)c(O)cc2O)c1-c1ccc(S(C)(=O)=O)cc1 | 304 nM |  |  |  | 
23 | COC(=O)Cn1nnc(-c2cc(C(C)C)c(O)cc2O)c1-c1cccc(S(C)(=O)=O)c1 | 43.1 nM | 54.1 nM | 17.4 µM | > 2000 nM | 569 nM
24 | CCOC(=O)Cn1nnc(-c2cc(CC)c(O)cc2O)c1-c1cccc(S(C)(=O)=O)c1 | 161 nM |  |  |  | 
25 | COC(=O)Cn1nnc(-c2cc(C(C)C)c(O)cc2O)c1-c1ccc(CN2CCCCC2)cc1 | 57 nM | 49.4 nM | 6.98 µM |  | 
26 | COC(=O)Cn1nnc(-c2cc(C(C)C)c(O)cc2O)c1-c1ccc(OCCN(C)C)cc1 | 71.2 nM | 175 nM | 14.1 µM |  | 
27 | CCOC(=O)Cn1nnc(-c2cc(C(C)C)c(O)cc2O)c1-c1ccc(S(C)(=O)=O)cc1 | 41.8 nM | 100 nM | 16 µM | 402 nM | 324 nM
28 | CCc1cc(-c2nnn(CC(=O)OC)c2-c2ccc(S(C)(=O)=O)cc2)c(O)cc1O | 214 nM |  |  |  | 
29 | CC(C)c1cc(-c2nnn(CC(=O)O)c2-c2ccc3c(c2)OCCO3)c(O)cc1O | 176 nM |  |  |  | 
30 | CCOC(=O)Cn1nnc(-c2cc(C(C)C)c(O)cc2O)c1-c1cccc(NS(C)(=O)=O)c1 | 77 nM | 209 nM | 33.2 µM |  | 
31 | CC(C)c1cc(-c2n[nH]c(=O)n2-c2ccc3c(ccn3C)c2)c(O)cc1O [GANETESPIB] |  | 37.7 nM |  | 11.7 nM | 9.3 nM
32 | CC(C)NCCCn1c(Sc2cc3c(cc2I)OCO3)nc2c(N)ncnc21 [PU-H71] |  |  |  | 226 nM | 363 nM
